For this assay, the system named is HepG2 viability, CellTiter-Glo ATP luminescence, 72 h. Description: HepG2 cell cytotoxicity, dose response, cytotoxicity control, CellTiter-Glo luminescence, cherry-pick, set 2 (AID 743395). Background: In ATP-based viability assays light output follows the ATP content of the culture.
Regarding `Nc1ccn([C@@H]2O[C@H](CO)[C@@H](O)[C@@H]2O)c(=O)n1`, the AC35 is 7.89 µM.

Turning to `Cc1ccc2cc(CN(CC3CCCO3)C(=S)Nc3ccccc3)c(=O)[nH]c2c1C` (stereo unspecified), the AC35 is 14.7 µM.

Consider `COc1ccccc1NC(=S)NN=C(C)c1ccccn1`, for which the AC35 was 0.0927 µM.

Regarding `COc1ccc(N2CCc3c(C)nc4c(OC)cc(OC)cc4c32)cc1`, the AC35 was 9.38 µM.

As for `Cc1cc2c(cc1S(=O)(=O)Nc1ccc(F)cc1)n(C)c(=O)c(=O)n2C`, the AC35 is 18.2 µM.

Turning to `COc1ccc(C2CC(c3cccc(Br)c3)=NN2c2ccc(S(N)(=O)=O)cc2)cc1` (stereo unspecified), the AC35 was 18.1 µM.

Consider `CCN1/C(=C\c2ccc3cc(C)ccc3[n+]2CC)Sc2cc(C)c(C)cc21`, for which the AC35 is 3.19 µM.

With `c1ccc2c(NCCCN3CCOCC3)c3ccccc3nc2c1`, the AC35 was 2.78 µM.

In the case of `CC1(C(=O)NCc2ccco2)Cc2c(-c3ccc4c(c3)OCO4)ccnc2O1` (stereo unspecified), the AC35 was 9.85 µM.

For `CC1(Cc2ccc(F)cc2)C(=O)Nc2c(Cl)ccc(Cl)c21` (stereo unspecified), the AC35 is 12 µM.

Take `Cc1ncc(CO)c(/C=N/Nc2ccc(C(F)(F)F)cn2)c1O`: the AC35 was 4.63 µM.

`Nc1c(C(=O)c2ccco2)oc2ccccc12`: the AC35 is 15.8 µM.

`CCN(CC)CCC(=O)Nc1cccc2c1C(=O)c1ccccc1C2=O`: the AC35 was 6.39 µM.

Take `Cc1ccc(-c2ccc([C@H]3[C@@H](CO)N4CCCCN(C(=O)Nc5cccc(F)c5)C[C@H]34)cc2)cc1`: the AC35 was 11 µM.

`N#CC1=C(N)Oc2c(ccc3cccnc23)C1c1ccccc1` (stereo unspecified): the AC35 is 6.64 µM.

Take `CCOc1ccc2[nH]c(C(=O)N/N=C/c3ccc(OC)cc3)cc2c1`: the AC35 was 4.77 µM.

For `Cc1cc(NCc2ccccn2)n2ncc(-c3ccccc3)c2n1`, the AC35 is 7.75 µM.

For `Cc1ccc(OCCNC(=O)c2cccc(S(=O)(=O)NCc3ccccc3)c2)cc1`, the AC35 is 15.2 µM.

`COc1ccc(C2C3=C(COC3=O)Oc3cc4c(cc32)OCO4)cc1OC` (stereo unspecified): the AC35 is 10.9 µM.

In the case of `C[C@H]1CN([C@@H](C)CO)C(=O)Cc2cc(NC(=O)Nc3ccc(C(F)(F)F)cc3)ccc2O[C@H]1CN(C)S(=O)(=O)c1ccccc1`, the AC35 is 10.1 µM.

Turning to `Cc1ccc(-c2ccc3c(c2)O[C@H](CN(C)Cc2ccccn2)[C@@H](C)CN([C@@H](C)CO)S3(=O)=O)cc1`, the AC35 was 16.8 µM.

`Cc1ccc(/C=N/NC(=O)c2ccc3ccccc3c2)s1`: the AC35 is 9.16 µM.

Consider `COc1ccccc1NC1=C(NC(C)=O)C(=O)c2ccccc2C1=O`, for which the AC35 was 12.2 µM.

For `Cc1nn(S(=O)(=O)c2ccc(Cl)cc2)c(C)c1Sc1ccc([N+](=O)[O-])cc1`, the AC35 is 21.8 µM.

Turning to `COc1cc2c(C#CCCO)c(-c3ccsc3)oc(=O)c2cc1OC`, the AC35 was 21 µM.

`CCOc1ccc(C(=O)COC(=O)Cc2n[nH]c(=O)c3ccccc23)cc1`: the AC35 was 19.3 µM.

Take `CCOC(=O)c1c(NC(=O)C2c3ccccc3Oc3ccccc32)sc(C(C)=O)c1C`: the AC35 is 17.6 µM.

Regarding `COc1cc2c(-c3ccccc3)c(C)oc2cc1/C=N/NC(N)=S`, the AC35 is 6.29 µM.

On to `CCOc1cc(/C=N/NC(=O)N/N=C/c2ccc(O)c(OCC)c2)ccc1O`, for which the AC35 is 20 µM.

Regarding `CN1c2ccc(-c3ccc(F)cc3)cc2[C@H]2[C@H](CCN2S(=O)(=O)c2ccc(F)cc2)[C@H]1CO`, the AC35 is 19.5 µM.

With `Cn1nccc1C(=O)N/N=C/c1c(O)ccc2ccccc12`, the AC35 is 4.13 µM.

With `Cc1onc(-c2ccccc2Cl)c1C(=O)N1CCN(c2cccc(Cl)c2)CC1`, the AC35 is 13.5 µM.

In the case of `COc1cc(/C=C(\C#N)c2nc3ccccc3[nH]2)cc(OC)c1O`, the AC35 is 17.2 µM.

`COc1ccc(C2=Nn3c(nnc3-c3ccccc3F)SC2)cc1OC1CCOC1` (stereo unspecified): the AC35 is 13.2 µM.

As to `CCOc1ccc(C(=O)O/N=C(\N)c2ccccn2)cc1`, the AC35 was 16.5 µM.

In the case of `CC(=O)Nc1ccc2cc3ccc(NC(C)=O)cc3nc2c1`, the AC35 was 11.6 µM.

On to `COc1ccc2c3c(n(C)c2c1)[C@H](CO)N(C(=O)C1CC1)CC31CCN(Cc2cccc(F)c2)CC1`, for which the AC35 was 4.68 µM.

As for `COc1ccc(CNS(=O)(=O)c2cc(-c3cc(C)no3)ccc2C(C)C)cc1`, the AC35 was 7.14 µM.

Regarding `O=C1C=CCC(/C=C/c2ccccc2)O1` (stereo unspecified), the AC35 is 19 µM.

With `COC(=O)c1cn(NC(=O)c2cc([N+](=O)[O-])ccc2F)c(=O)c2ccccc12`, the AC35 was 0.521 µM.

`Cc1noc(C)c1COc1ccc(C(=O)NNC(=O)c2ccccc2)cc1`: the AC35 is 12.2 µM.

On to `COc1ccccc1Nc1c2c(nc3ccccc13)CCC2`, for which the AC35 was 7.12 µM.

Turning to `Oc1ccc(/C=N/Nc2nc(-c3ccccc3F)nc3ccccc23)c(O)c1`, the AC35 was 15.6 µM.

As to `CC(C)CC#Cc1ccc([C@@H]2[C@@H](CO)N3CCCCN(C(=O)NC4CCCC4)C[C@H]23)cc1`, the AC35 is 9.9 µM.

In the case of `CCCNC(=O)c1ccc2c(=O)c(O)c(-c3cccc(Br)c3)[nH]c2c1`, the AC35 was 4.65 µM.

As to `COc1cccc(/C=N/Nc2ncnc(Cl)c2N)c1O`, the AC35 was 2.15 µM.

On to `Cc1ccc(-c2nn(-c3ccccc3)cc2C(=O)N2CCN(c3ccccn3)CC2)cc1`, for which the AC35 was 12.3 µM.

For `COc1ccc(C)cc1Nc1c2c(nc3ccccc13)CCC2`, the AC35 was 8.79 µM.

`COc1cccc(/C=N/NC(=O)C(=O)Nc2ccccc2OC(F)(F)C(F)F)c1O`: the AC35 is 15 µM.

On to `C#C[C@]1(O)CC[C@H]2[C@@H]3CCc4cc(OC5CCCC5)ccc4[C@H]3CC[C@@]21C`, for which the AC35 is 21 µM.

As for `CCCC#Cc1ccc([C@H]2[C@@H](CO)N3CCCCN(S(=O)(=O)c4ccccc4C)C[C@H]23)cc1`, the AC35 is 8.96 µM.

For `CC(=O)Nc1cccc(-c2ccnc3c2CC(C)(C(=O)NCc2cccs2)O3)c1` (stereo unspecified), the AC35 was 2.49 µM.

For the compound `COc1cccc(S(=O)(=O)N2C[C@@H]3N[C@H](C2)C3c2ccc(-c3ccccc3F)cc2)c1` (stereo partly specified), the AC35 is 11.3 µM.

As to `Cc1cc(NCc2ccccn2)n2nc(C)c(-c3ccccc3)c2n1`, the AC35 is 10 µM.

Regarding `CCSC(=O)N1c2ccc(OC)cc2C=CC1C#N` (stereo unspecified), the AC35 is 7.54 µM.

On to `O=C(Nc1cccc(F)c1)N1CCCCN2[C@@H](CO)[C@H](c3ccc(C#Cc4ccccc4)cc3)[C@@H]2C1`, for which the AC35 was 9.45 µM.

For `COc1cc(C(=O)N/N=C(\c2ccccc2)c2ccccn2)cc(OC)c1OC`, the AC35 was 1.46 µM.

`O=c1[nH]c(/C=C/c2ccccc2F)nc2ccccc12`: the AC35 is 9.06 µM.

With `O=C(C1CCCC1)N1CC(=O)N2[C@H](CO)[C@@H](c3ccc(-c4ccccc4F)cc3)[C@@H]2C1`, the AC35 is 16.3 µM.

As to `CO[C@@]12[C@@H]3N[C@@H]3CN1C1=C(C(=O)C(N)=C(C)C1=O)[C@@H]2COC(N)=O`, the AC35 is 9.61 µM.

`Cc1ccc2nc(-c3ccc4c(c3)OCCO4)cn2c1`: the AC35 is 8.36 µM.

For `CCCCC(=NCCc1c(C)[nH]c2ccc(OC)cc12)C1=C(O)CC(c2ccccc2)CC1=O` (stereo unspecified), the AC35 is 8.11 µM.

As for `COc1ccc([N+](=O)[O-])cc1Nc1c2ccccc2nc2ccccc12`, the AC35 was 18.4 µM.

`Cc1occc1C(=O)N/N=C/c1c(O)ccc2ccccc12`: the AC35 was 6.44 µM.

As for `CC[n+]1c(-c2ccccc2)c2cc(N)ccc2c2ccc(N)cc21`, the AC35 was 21.5 µM.

Turning to `C#Cc1cc(N2CCN(C(=O)c3ccoc3)CC2)n2nc(-c3cccc(Cl)c3)cc2n1`, the AC35 was 7.94 µM.
